According to patent US8338143B2, “Enhanced production of paclitaxel and taxanes by cell cultures of Taxus species” (Phyton Holdings, LLC, priority 1996, dated 2012):
Like-named read-outs stand apart in the source and are kept apart here.

Key:
[1] = tested on: Taxus chinensis cell culture SS122-42; assay: Enhancement of taxane biosynthesis by jasmonic acid and its methyl ester; format: cell-based; details: 200 μM JMA or 89 μM MJS; Medium N + 10 μM NAA, 14 days, whole broth
Protocol: Seven-day old cells of Taxus chinensis suspensions cultivated in Medium M (Table 2) were suction filtered aseptically using a sterile Buchner funnel fitted with a MIRACLOTH (Calbiochem) filter. Cells were inoculated into culture medium of the given composition indicated in Table 12, at a fresh weight cell density in the range of 15% to 20% (w/v). The cultures were incubated at 24±1° C. at 120 or 180 RPM (depending on the vessel size) on a gyratory shaker (1″ throw) in the dark. Evaporation was corrected for by adding sterile distilled water. Samples of whole broth (i.e., both extracellular and intracellular taxanes) were taken at periodic intervals, and were processed and analyzed by HPLC according to the methods outlined in Example 5.

Taxus chinensis SS122-42 = assay: Enhancement of taxane biosynthesis by MDNA; format: cell-based; details: 50 μM MDNA, 14 days, whole broth
Protocol: Seven-day old cells of Taxus chinensis suspension culture SS122-42 cultivated in Medium M (Table 2) were suction filtered aseptically using a sterile Buchner funnel fitted with a […] (Calbiochem) filter. […] The vessels were incubated at 24±1° C. at 180 RPM on a gyratory shaker (1'' throw) in the dark. Treated cultures were sampled and analyzed using the methods described in Example 5 at various time points. Evaporation was corrected for by adding sterile distilled water at periodic intervals.

[2] = tested on: Taxus chinensis cell culture SS122-13; assay: Enhancement of taxane biosynthesis by jasmonic acid and its methyl ester; format: cell-based; details: 89 μM MJS; Medium N + 10 μM NAA, 14 days, whole broth
Protocol: Seven-day old cells of Taxus chinensis suspensions cultivated in Medium M (Table 2) were suction filtered aseptically using a sterile Buchner funnel fitted with a […] (Calbiochem) filter. […] The cultures were incubated at 24±1° C. at 120 or 180 RPM (depending on the vessel size) on a gyratory shaker (1'' throw) in the dark. Evaporation was corrected for by adding sterile distilled water.

[3] = tested on: Taxus chinensis cell line KS1A; assay: Enhancement of taxane biosynthesis by silver compounds; format: cell-based
Protocol: Analytical high performance liquid chromatography (HPLC) was performed on a high-carbon loaded diphenyl column (Supelco, 5 μM, 4.6 mm×25 cm) with an LDC Analytical binary gradient high pressure mixing system consisting of CM3500/CM3200 pumps, a CM4100 variable volume autosampler and an SM5000 photo diode array detector interfaced to a personal computer. Column temperature was regulated ay 35° C. with an Eldex CH150 column oven. Quantitative HPLC analysis of taxanes was accomplished using a binary gradient elution scheme as follows: […]
Seven-day old cells of Taxus chinensis suspension KS1A cultivated in Medium L (Table 2) were suction filtered aseptically using a sterile Buchner funnel fitted with a MIRACLOTH (Calbiochem) filter. Approximately 0.75 to 1 gram fresh weight cells were inoculated into 4 to 5 mL of culture medium of the given composition indicated in Table 10, to yield a fresh weight cell density in the range of 15% to 20% (w/v). The vessels were incubated at 25±1° C. at 120 RPM on a gyratory shaker (1″ throw) in the dark. Evaporation was corrected for by addition of sterile distilled water. Samples of whole broth (i.e., both extracellular and intracellular taxanes) were taken at periodic intervals, and were processed and analyzed by HPLC according to the methods outlined in Example 5.

Taxus spp. cell cultures [4] = assay: Elicitation of Taxus cell cultures by biotic and abiotic elicitors; details: comparison among elicitors tested
Taxus spp. cell cultures [5] = tested on: Taxus spp. cell cultures
[6] = tested on: Taxus chinensis cell culture SS6A-1224
[7] = tested on: Taxus chinensis cell culture SS122-13
[8] = tested on: Taxus chinensis cell culture SS122-42
[9] = culture medium I (Medium N + 10 μM NAA)
[10] = culture medium II (medium I + 50 μM silver thiosulfate)

CC/C=C\C[C@H]1C(=O)CC[C@@H]1CC(=O)O [JMA, Jasmonic acid]
Baccatin III [1]: 4 mg/L
Other Taxanes [1]: 87 mg/L
Taxol (paclitaxel) [1]: 120 mg/L
Total Taxanes [1]: 211 mg/L

O=C(O)C=Cc1cc2c(cc1[N+](=O)[O-])OCO2 [MDNA, 3,4-methylenedioxy-6-nitrocinnamic acid]
Baccatin III (Taxus chinensis SS122-42; [9]): 5 mg/L
Other Taxanes (Taxus chinensis SS122-42; [9]): 45 mg/L
Taxol (paclitaxel) (Taxus chinensis SS122-42; [9]): 163 mg/L
Total Taxanes (Taxus chinensis SS122-42; [9]): 213 mg/L
Baccatin III (Taxus chinensis SS122-42; [10]): 34 mg/L
Other Taxanes (Taxus chinensis SS122-42; [10]): 89 mg/L
Taxol (paclitaxel) (Taxus chinensis SS122-42; [10]): 311 mg/L
Total Taxanes (Taxus chinensis SS122-42; [10]): 434 mg/L

CC/C=C\CC1C(=O)CCC1CC(=O)OC (centres unmarked) [MJS, methyl jasmonate]
Baccatin III [1]: 3 mg/L
Other Taxanes [1]: 109 mg/L
Taxol (paclitaxel) [1]: 121 mg/L
Total Taxanes [1]: 233 mg/L
Baccatin III [2]: 9 mg/L
Other Taxanes [2]: 63 mg/L
Taxol (paclitaxel) [2]: 73 mg/L
Total Taxanes [2]: 124 mg/L

O=C([O-])c1ccccc1.[Ag+] [Silver benzoate]
Baccatin III [3]: 40 mg/L extracellular product
Taxol (paclitaxel) [3]: 7 mg/L extracellular product
Total Taxanes [3]: 47 mg/L extracellular product

O=S(=O)([O-])[O-].[Ag+].[Ag+] [Silver sulfate]
Baccatin III [3]: 61 mg/L extracellular product
Taxol (paclitaxel) [3]: 7 mg/L extracellular product
Total Taxanes [3]: 68 mg/L extracellular product

O=C(O)c1ccccc1 [benzoic acid]
production increase by elicitation (taxane accumulation and secretion) (Taxus spp. cell cultures [4]): highest production increase

COc1cc(/C=C/C(=O)O)ccc1O [ferulic acid]
production increase by elicitation (taxane accumulation and secretion) (Taxus spp. cell cultures [4]): highest production increase

Chitosan
toxicity to cells / effect on cell viability (Taxus spp. cell cultures [5]): toxic and causes permanent cell damage

Silver oxide
Baccatin III [3]: 43 mg/L extracellular product
Taxol (paclitaxel) [3]: 18 mg/L extracellular product
Total Taxanes [3]: 61 mg/L extracellular product

Silver thiosulfate
Baccatin III [3]: 71 mg/L extracellular product
Taxol (paclitaxel) [3]: 15 mg/L extracellular product
Total Taxanes [3]: 86 mg/L extracellular product
Baccatin III [6]: 172 mg/L
Other Taxanes [6]: 126 mg/L
Taxol (paclitaxel) [6]: 86 mg/L
Total Taxanes [6]: 384 mg/L
Baccatin III [7]: 12 mg/L
Other Taxanes [7]: 60 mg/L
Taxol (paclitaxel) [7]: 103 mg/L
Total Taxanes [7]: 173 mg/L
Baccatin III [8]: 4 mg/L
Other Taxanes [8]: 38 mg/L
Taxol (paclitaxel) [8]: 146 mg/L
Total Taxanes [8]: 188 mg/L

Toluenesulfonic acid silver salt
Baccatin III [3]: 39 mg/L extracellular product
Taxol (paclitaxel) [3]: 6 mg/L extracellular product
Total Taxanes [3]: 45 mg/L extracellular product
